{"source": "patent US20170226139A1", "about": "“CRYSTALLINE SALTS OF (Z)-O-OCTADEC-9-EN-1-YL O,O-DIHYDROGEN PHOSPHOROTHIOATE” (priority 2013, published 2017)", "key": {"Human LPA1": {"molecular_target": "T1, Human LPA1 (Homo sapiens, UniProt Q92633)", "T1 construct": "expressed in transfected cells; host or cells: mouse embryonic fibroblasts (MEF)", "T1 sequence (Q92633 whole entry)": "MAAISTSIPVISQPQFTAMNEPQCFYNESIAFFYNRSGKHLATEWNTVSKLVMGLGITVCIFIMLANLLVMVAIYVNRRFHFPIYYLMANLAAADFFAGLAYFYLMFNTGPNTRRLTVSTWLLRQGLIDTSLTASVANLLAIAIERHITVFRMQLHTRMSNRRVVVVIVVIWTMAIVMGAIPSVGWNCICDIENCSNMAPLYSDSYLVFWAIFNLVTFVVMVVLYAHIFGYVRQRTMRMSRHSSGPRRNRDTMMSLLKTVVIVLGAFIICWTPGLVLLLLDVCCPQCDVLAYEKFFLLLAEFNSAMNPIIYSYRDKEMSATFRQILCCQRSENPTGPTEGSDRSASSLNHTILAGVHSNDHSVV", "assay": "Calcium-mobilization assay (FURA-2), human LPA1 transfected cells", "assay_type": "cell-based", "conditions": "for EC50: EC50 [nM], mean", "experimental": "(§1) We investigated structure-activity relationships across species, LPAR subtypes and between Rx100 and two known process impurities encountered in manufacture: Rx103 (‘E’ isomer) and Rx200 (oleyl phosphate and impurity, which can be an Rx100 degradant along with oleyl alcohol). Rx100, Rx103, Rx200 and native LPA were investigated at different human LPAR subtypes. In addition, the activity of these compounds was evaluated at LPA2 receptors from the rhesus, rat and mouse species. Human LPA1/2/3 subtypes were transfected into mouse embryonic fibroblasts (MEF) or rat hepatoma cells (RH7777)—both of which are normally non-responsive or null to LPA. Human LPA4 was transfected into Chinese hamster ovary (CHO) cells and LPA5 into the B103 neuroblastoma cell line. […] The B103 rat neuroblastoma cell line is endogenously nonresponsive to LPA but expresses heterologous LPA5 receptors well. […] LPAR activation elicits a G-protein-mediated transient rise in intracellular calcium level that is proportional to the concentration of LPA applied. The intracellular calcium level was quantified by the calcium-selective fluorescent indicator FURA-2 (e.g., increased intracellular calcium surge=increased fluorescence)."}, "[1]": {"tested_on": "male Rhesus macaque Animal Model of GI-ARS", "assay": "Survival after partial body irradiation, male Rhesus macaque Animal Model of GI-ARS", "assay_type": "in vivo", "experimental": "Using a partial body irradiation (tibial sparing) animal model in the female C57BL/6 mice, we tested the survival advantages conferred by GMP Rx100.L-Lysine salt. As a result, when administered at 0.3 to 3 mg/kg/12 h×6 doses starting at +24 hours after exposure to 15.5 to 15.7 Gy from a ^137Cesium irradiator which otherwise reliably produces an LD70-90/10 (in 10 days, 70-90% mice die after irradiation), the mortality was reduced by 20% to 50%. When administered at 0.1 mg/kg/day×6 doses in a partial body irradiation Animal Model in 19 male Rhesus macaque, a 37% increase in survival at a normally LD70/34 dose of X-ray radiation was observed. By allometric scaling using body surface area, these lowest effective doses translate to 0.02 mg/kg/day and to 0.03 mg/kg/day in humans, respectively.\nThese Animal Model studies were all conducted using partial body irradiation (PBI) with tibial bone marrow sparing except the earliest study which was performed with Total Abdominal Irradiation (TAI). The male Rhesus macaque model was developed by MacVittie. The female inbred murine PBI GI-ARS Animal Model was developed by the inventors. […] Differences in radiation sensitivity by gender in rodent species are well appreciated. We are not aware of PBI GI-ARS models other than these that meet criteria required to conduct a prospective, blinded, controlled, randomized study of efficacy."}, "Human LPA3": {"molecular_target": "T2, Human LPA3 (Homo sapiens, UniProt Q9UBY5)", "T2 construct": "expressed in transfected cells; host or cells: mouse embryonic fibroblasts (MEF) or rat hepatoma RH7777", "T2 sequence (Q9UBY5 1-353)": "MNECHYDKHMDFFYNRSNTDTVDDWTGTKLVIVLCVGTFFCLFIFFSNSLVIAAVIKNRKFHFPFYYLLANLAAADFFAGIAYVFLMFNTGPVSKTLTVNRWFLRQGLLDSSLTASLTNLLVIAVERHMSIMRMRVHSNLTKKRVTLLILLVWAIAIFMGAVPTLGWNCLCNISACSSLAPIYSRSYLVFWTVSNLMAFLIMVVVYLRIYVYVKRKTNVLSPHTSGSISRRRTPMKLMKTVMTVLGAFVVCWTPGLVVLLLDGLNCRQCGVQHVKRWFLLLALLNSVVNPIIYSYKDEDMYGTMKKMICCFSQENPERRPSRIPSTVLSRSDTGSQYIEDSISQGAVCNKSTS", "assay": "Calcium-mobilization assay (FURA-2), human LPA3 transfected cells", "assay_type": "cell-based", "conditions": "for EC50: EC50 [nM], mean", "experimental": "as §1"}, "Sprague-Dawley rats": {"tested_on": "Sprague-Dawley rats", "assay": "Single-dose (and 7-day) subcutaneous toxicity in rats", "assay_type": "in vivo", "experimental": "In the second phase of the study, animals (n=3/sex/group) received 25 mg/kg/day for seven consecutive days with injections being rotated between two sites. Parameters evaluated included clinical signs, body weight, and gross pathology."}, "[2]": {"assay": "Evaporative crystallization tests, XRPD", "assay_type": "physicochemical", "conditions": "evaporated to dryness under vacuum at ambient conditions", "experimental": "Third, Evaporative Crystallization tests were performed. Based on the short term slurry experiments, all samples which experienced full dissolution were utilized for evaporative crystallizations. Samples were evaporated to dryness under vacuum at ambient conditions."}, "Male Sprague-Dawley rats": {"tested_on": "Male Sprague-Dawley rats", "assay": "Gastrointestinal system safety pharmacology (charcoal transit, gastric emptying)", "assay_type": "in vivo", "experimental": "Male Sprague-Dawley rats (n=6/group) were administered Rx100.lysine as a single oral (gavage) doses of 0 (10 mM histidine in sterile water for Injection, USP), 1.81, 6.33, and 18.1 mg/kg and monitored for gastrointestinal parameters of transit time and gastric emptying. A fifth group was treated with the positive control material morphine sulfate. Two hours after treatment, animals received an oral gavage dose of a charcoal suspension. Animals were then sacrificed 20 minutes. Parameters evaluated included gastrointestinal transit time and gastric emptying. […] No abnormal observations were recorded. […] It was concluded that there were no adverse effects on the gastrointestinal tract in rats at doses of 1.81 mg/kg (gastric emptying) or 6.33 mg/kg (transit time)."}, "[3]": {"assay": "Gravimetric moisture sorption analysis, with XRPD afterwards", "assay_type": "physicochemical", "experimental": "Moisture sorption analysis of the Rx100.L-Lysine salt was performed by equilibrating the sample at 25° C. and 50% RH to simulate ambient lab conditions. Humidity then decreased to 0% RH, increased from 0 to 95% RH, reduced from 95 to 0% RH, increased from 0 to 95% RH and then decreased from 95 to 50% RH."}, "[4]": {"conditions": "RH7777, read-out: Emax (% of LPA)"}, "[5]": {"conditions": "UC Davis 2011, Rhesus (♂), 0.1 mg/kg (q24 × 6), start +4, 11.5 Gy, non-GLP"}, "[6]": {"conditions": "UC Davis 2011, Rhesus (♂), 0.1 mg/kg (q24 × 6), start +4, 11.5 Gy, non-GLP, vs vehicle"}, "[7]": {"conditions": "male, Sprague-Dawley, rat, in vivo, oral, 140 min"}}, "note": "Like-named read-outs stand apart in the source and are kept apart here.", "data": [{"compound": "CCCCCCCC/C=C\\CCCCCCCCOP(O)(O)=S", "note": "[Rx100, (Z)—O-octadec-9-en-1-yl O,O-dihydrogen phosphorothioate]", "values": [{"measurement": "EC50", "setting": "Human LPA1; LPA1 DKO MEF, human", "result": 273, "unit": "nM"}, {"measurement": "EC50", "setting": "Human LPA1; LPA1 RH7777, human", "result": 1030, "unit": "nM"}, {"measurement": "Emax", "setting": "Human LPA1; [4]", "result": 69, "unit": "%"}, {"measurement": "Emax", "setting": "Human LPA1; read-out: Emax (% of LPA)", "result": 70, "unit": "%"}, {"measurement": "Survival Day 10, Rx100 arm (survivors/animals)", "setting": "[1]; [5]", "result": "2/9"}, {"measurement": "Survival Day ≧30, Rx100 arm (survivors/animals)", "setting": "[1]; [5]", "result": "6/9"}, {"measurement": "Survival Advantage Day 10", "setting": "[1]; [6]", "result": 8, "unit": "%"}, {"measurement": "Survival Advantage Day ≧30", "setting": "[1]; [6]", "result": 37, "unit": "%"}, {"measurement": "EC50", "setting": "Human LPA3; LPA3 DKO MEF, human", "result": 205, "unit": "nM"}, {"measurement": "EC50", "setting": "Human LPA3; LPA3 RH7777, human", "result": 113, "unit": "nM"}, {"measurement": "Emax", "setting": "Human LPA3; [4]", "result": 71, "unit": "%"}, {"measurement": "Emax", "setting": "Human LPA3; read-out: Emax (% of LPA)", "result": 82, "unit": "%"}]}, {"compound": "CCCCCCCC/C=C\\CCCCCCCCOP(O)(O)=S", "note": "[Rx100.L-Lysine, (Z)—O-octadec-9-en-1-yl O,O-dihydrogen phosphorothioate]", "values": [{"measurement": "necropsy findings", "setting": "Sprague-Dawley rats; Phase I, rats given >50 mg/kg", "result": "scabs were observed on the skin overlying the injection site"}, {"measurement": "body weight", "setting": "Sprague-Dawley rats; Phase I, single SC dose >50 mg/kg, first 3 days post-dose", "result": "transient loss of body weight"}, {"measurement": "skin findings", "setting": "Sprague-Dawley rats; Phase I, single SC doses of >10 mg/kg, beginning several days post-dose", "result": "produced scabs"}, {"measurement": "body weight", "setting": "Sprague-Dawley rats; Phase II, 25 mg/kg/day for seven consecutive days", "result": "transient body weight loss was followed by rebound"}, {"measurement": "necropsy findings", "setting": "Sprague-Dawley rats; Phase II, 25 mg/kg/day for seven days", "result": "small organ size was noted for the epididymis, prostate, seminal vesicle, and testis of all three males"}, {"measurement": "dosing site findings", "setting": "Sprague-Dawley rats; Phase II, 25 mg/kg/day for seven days, first two dosing sites", "result": "scabs developed with delayed onset"}, {"measurement": "increase in survival", "setting": "[1]; 0.1 mg/kg/day×6 doses, 19 male Rhesus macaque, normally LD70/34 dose of X-ray radiation", "result": 37, "unit": "%"}, {"measurement": "Form by XRPD after evaporative crystallization", "setting": "[2]", "result": "no change in form"}, {"measurement": "gastric emptying", "setting": "Male Sprague-Dawley rats; 6.33 and 18.1 mg/kg, statistically significant only at 6.33 mg/kg", "result": "inhibited"}, {"measurement": "dose with no adverse effects on gastric emptying", "setting": "Male Sprague-Dawley rats; [7]", "result": 1.81, "unit": "mg/kg"}, {"measurement": "dose with no adverse effects on transit time", "setting": "Male Sprague-Dawley rats; [7]", "result": 6.33, "unit": "mg/kg"}, {"measurement": "intestinal transit time", "setting": "Male Sprague-Dawley rats; only at 18.1 mg/kg", "result": "increased"}, {"measurement": "Hygroscopicity", "setting": "[3]", "result": "hygroscopic"}, {"measurement": "Residual water content after desorption", "setting": "[3]", "result": "< 3", "unit": "%"}, {"measurement": "Water adsorbed in moisture sorption analysis", "setting": "[3]; at 95% RH, 25° C.", "result": 20.6, "unit": "%"}, {"measurement": "Form by XRPD after moisture sorption analysis", "setting": "[3]; compared with Pattern A", "result": "no change in form"}]}]}
